Data taken from publication PMC7216583 (Parasites & Vectors, 2020).
Where a name gives a salt, the structure may show the parent alone. Read-outs that look alike come from different tables or passages of the source.

Experiments:
5-HT7 receptor = biological target: 5-HT7 receptor; design: method as in vendor brief description; conditions: ref vendor brief description; cited from earlier work
5-HT3A = system: 5-HT3A; design: method as in vendor brief description; conditions: ref vendor brief description; read-out: IC50 5-HT(3A); cited from earlier work
5-HT1A = system: 5-HT1A; design: method as in vendor brief description; conditions: ref vendor brief description; cited from earlier work
5-HT(1B) = system: 5-HT(1B); design: method as in vendor brief description; conditions: ref vendor brief description; cited from earlier work
SERT = system: SERT; design: method as in vendor brief description; conditions: ref vendor brief description; cited from earlier work
[1] = system: Toxoplasma gondii RH-2F tachyzoites; assay: microbe, parasite or virus in culture; conditions: 72 h
CDK4/cyclin D1 = system: CDK4/cyclin D1; design: method as in library vendor description; conditions: ref library vendor description; cited from earlier work
CDK6/cyclin D2 = system: CDK6/cyclin D2; design: method as in library vendor description; conditions: ref library vendor description; cited from earlier work
HDAC = system: HDAC; design: method as in library vendor description; conditions: ref library vendor description; cited from earlier work
B-RafV600E = system: B-RafV600E; design: method as in library vendor description; conditions: ref library vendor description; cited from earlier work
in vitro = conditions: human, Host viability (%) mean
IGF-1R = system: IGF-1R; design: method as in library vendor description; conditions: ref library vendor description; cited from earlier work
IR = system: IR; design: method as in library vendor description; conditions: ref library vendor description; cited from earlier work
ALK = system: ALK; design: method as in library vendor description; conditions: ref library vendor description; cited from earlier work
PPARδ = system: PPARδ; design: method as in vendor brief description; conditions: ref vendor brief description; cited from earlier work
cytomegalovirus (CMV) = system: cytomegalovirus (CMV); design: method as in vendor brief description; conditions: target not stated with the value; ref vendor brief description; cited from earlier work
CYP17 = system: CYP17; design: method as in library vendor description; conditions: ref library vendor description; cited from earlier work
P-glycoprotein = biological target: P-glycoprotein; design: method as in vendor brief description; conditions: ref vendor brief description; cited from earlier work
[2] = system: Toxoplasma gondii RH-2F tachyzoites; conditions: preliminary screen, mean
wild type p110α = system: wild type p110α; design: method as in library vendor description; conditions: ref library vendor description; cited from earlier work
HDAC10 = system: HDAC10; design: method as in library vendor description; conditions: ref library vendor description; cited from earlier work
endothelin receptor-A = biological target: endothelin receptor-A; design: method as in vendor brief description; conditions: ref vendor brief description; cited from earlier work
ET-B = system: ET-B; design: method as in vendor brief description; conditions: ref vendor brief description; read-out: IC50 endothelin (ET) B receptor; cited from earlier work
[3] = read-out: Parasite inhibition (%) mean, preliminary screen of compound library, mean
[4] = read-out: Parasite inhibition (%) mean, preliminary screen, mean

Cc1ccc(Sc2ccccc2N2CCNCC2)c(C)c1 [Vortioxetine (Lu AA21004) hydrobromide]
IC50 (5-HT7 receptor): 0.019 µM
IC50 (5-HT3A): 0.0037 µM
IC50 (5-HT1A): 0.015 µM
IC50 (5-HT(1B)): 0.033 µM
IC50 (SERT): 0.0016 µM
inhibition of growth at 5 µM [1, 3]: 66.8%

CC(=O)c1c(C)c2cnc(Nc3ccc(N4CCNCC4)cn3)nc2n(C2CCCC2)c1=O [PD 0332991 (Palbociclib) HCl]
IC50 (CDK6/cyclin D2): 0.016 µM
inhibition of growth at 5 µM [1, 4]: 0.1%

O=C(/C=C/c1ccc(CN(CCO)CCc2c[nH]c3ccccc23)cc1)NO [LAQ824 (NVP-LAQ824, Dacinostat)]
IC50 (HDAC): 0.032 µM
inhibition of growth at 5 µM [1, 4]: 60.4%

OCCn1cc(-c2ccc3c(c2)CC/C3=N\O)c(-c2ccncc2)n1 [GDC-0879]
IC50 (B-RafV600E): 0.00013 µM
inhibition of growth at 5 µM [1, 4]: 7.9%

CCc1cc(Nc2nccc(-c3c(-c4ccc(OC)c(C(=O)Nc5c(F)cccc5F)c4)nc4ccccn34)n2)c(OC)cc1N1CCC(N2CCN(S(C)(=O)=O)CC2)CC1 [GSK1904529A]
viability at 72 h (in vitro): 76.8%
IC50 (IGF-1R): 0.027 µM
IC50 (IR): 0.025 µM
inhibition of growth at 5 µM [1, 4]: 70.6%

COc1cc(N2CCC(N3CCN(C)CC3)CC2)ccc1Nc1ncc(Cl)c(Nc2ccccc2S(=O)(=O)C(C)C)n1 [TAE684 (NVP-TAE684)]
inhibition of growth at 5 µM [1, 4]: 6.8%

O=C(NCCS(=O)(=O)c1ccc(C(F)(F)F)cn1)c1ccc(Cl)cc1 [GSK3787]
pIC50 PPARδ (PPARδ): GSK3787 is as a potent and selective antagonist of PPARδ with pIC50 of 6.6.
inhibition of growth at 5 µM [1, 3]: 9%

Nc1ccn(C[C@@H](CO)OCP(=O)(O)O)c(=O)n1 [Cidofovir (Vistide)]
IC50 (cytomegalovirus (CMV)): 0.94 µM
inhibition of growth at 5 µM [1, 3]: 0.8%

C[C@]12CC[C@H](O)CC1=CC[C@@H]1[C@H]2CC[C@]2(C)C(c3cccnc3)=CC[C@@H]12 [Abiraterone (CB-7598)]
IC50 (CYP17): 0.002 µM
inhibition of growth at 5 µM [1, 4]: 11.2%

COc1cc2c(cc1OC)CN(CCc1ccc(NC(=O)c3cc(OC)c(OC)cc3NC(=O)c3cnc4ccccc4c3)cc1)CC2 [Tariquidar]
Kd (P-glycoprotein): 0.0051 µM
inhibition of growth at 5 µM [1, 3]: 0.4%

XL147
Parasite inhibition (%) mean [2]: 44.4%
IC50 (wild type p110α): 0.04 µM

Cn1cc(CNCC2CCN(c3ncc(C(=O)NO)cn3)CC2)c2ccccc21 [JNJ-26481585]
viability at 72 h (in vitro): 70.5%
IC50 (HDAC10): 0.00046 µM
inhibition of growth at 5 µM [1, 4]: 79.4%

CCCNS(=O)(=O)Nc1ncnc(OCCOc2ncc(Br)cn2)c1-c1ccc(Br)cc1 [Macitentan]
IC50 (endothelin receptor-A): 0.0005 µM
IC50 (ET-B): 0.391 µM
inhibition of growth at 5 µM [1, 3]: 12.3%
